Measurements taken from ChEMBL document CHEMBL3885881, “DrugMatrix”.

Species: Rattus norvegicus
Test: DrugMatrix - Regimen: Daily Repeat
Type: toxicity, organism-based, Sprague-Dawley
Design: regimen Daily Repeat, gender Male, age 6-8 weeks
Details: in vivo, po, 900 mg/kg, route oral GAVAGE, dose level High, […]; for ABSOLUTE BASOPHIL / ABSOLUTE EOSINOPHIL / ABSOLUTE LYMPHOCYTE / ABSOLUTE MONOCYTE / BASOPHIL / EOSINOPHIL / ERYTHROCYTE COUNT / HEMATOCRIT / HEMOGLOBIN / LEUKOCYTE COUNT / LYMPHOCYTE / MEAN CORPUSCULAR HEMOGLOBIN / MEAN CORPUSCULAR HEMOGLOBIN CONCENTRATION / MEAN CORPUSCULAR VOLUME / MONOCYTE / NEUTROPHIL / PLATELET COUNT: tissue Blood
[1] = 72 h, tissue Plasma, time 3 day
[2] = 120 h, tissue Plasma, time 5 day

## Clc1ccc(Cl)cc1 [1,4-DICHLOROBENZENE]
72 h, time 3 day
  ABSOLUTE BASOPHIL: 33.3 cells/µL
  ABSOLUTE EOSINOPHIL: 40 cells/µL
  ABSOLUTE LYMPHOCYTE: 9740 cells/µL
  ABSOLUTE MONOCYTE: 310 cells/µL
  BASOPHIL: 0.27%
  EOSINOPHIL: 0.33%
  ERYTHROCYTE COUNT: 7.33 x10E6/uL
  HEMATOCRIT: 47.67%
  HEMOGLOBIN: 15.3 G/DL
  LEUKOCYTE COUNT: 11.53 x10E3/uL
  LYMPHOCYTE: 85.37%
  MEAN CORPUSCULAR HEMOGLOBIN: 20.83 pg
  MEAN CORPUSCULAR HEMOGLOBIN CONCENTRATION: 32.07 G/DL
  MEAN CORPUSCULAR VOLUME: 65 fL
  MONOCYTE: 2.5%
  NEUTROPHIL: 11%
  PLATELET COUNT: 1237 x10E3/uL
[1]
  ALANINE AMINOTRANSFERASE: 80.33 u/L
  ALBUMIN: 3.47 G/DL
  ALKALINE PHOSPHATASE: 437.33 u/L
  ASPARTATE AMINOTRANSFERASE: 129.33 u/L
  BLOOD UREA NITROGEN: 18.67 mg/dL
  CARBON DIOXIDE: 40 mmol/L
  CHLORIDE: 106.67 MEQ/L
  CHOLESTEROL: 71 mg/dL
  CREATINE PHOSPHOKINASE: 391 u/L
  CREATININE: 0.63 mg/dL
  GLUCOSE: 167.33 mg/dL
  LIPASE: 199.33 u/L
  PHOSPHORUS: 9.67 mg/dL
  POTASSIUM: 5.7 MEQ/L
  SODIUM: 148.67 MEQ/L
  TOTAL BILIRUBIN: 0.83 mg/dL
  TOTAL PROTEIN: 5.53 G/DL
  URIC ACID: 0.77 mg/dL
120 h, time 5 day
  ABSOLUTE BASOPHIL: 30 cells/µL
  ABSOLUTE EOSINOPHIL: 80 cells/µL
  ABSOLUTE LYMPHOCYTE: 9070 cells/µL
  ABSOLUTE MONOCYTE: 300 cells/µL
  BASOPHIL: 0.3%
  EOSINOPHIL: 0.73%
  ERYTHROCYTE COUNT: 7.06 x10E6/uL
  HEMATOCRIT: 45.4%
  HEMOGLOBIN: 14.13 G/DL
  LEUKOCYTE COUNT: 11.69 x10E3/uL
  LYMPHOCYTE: 77.37%
  MEAN CORPUSCULAR HEMOGLOBIN: 20.03 pg
  MEAN CORPUSCULAR HEMOGLOBIN CONCENTRATION: 31.1 G/DL
  MEAN CORPUSCULAR VOLUME: 64.53 fL
  MONOCYTE: 2.57%
  NEUTROPHIL: 18.23%
  PLATELET COUNT: 1234.33 x10E3/uL
[2]
  ALANINE AMINOTRANSFERASE: 88.67 u/L
  ALBUMIN: 3.83 G/DL
  ALKALINE PHOSPHATASE: 433.33 u/L
  ASPARTATE AMINOTRANSFERASE: 100.33 u/L
  BLOOD UREA NITROGEN: 16 mg/dL
  CARBON DIOXIDE: 42.33 mmol/L
  CHLORIDE: 105.33 MEQ/L
  CHOLESTEROL: 119 mg/dL
  CREATINE PHOSPHOKINASE: 376.67 u/L
  CREATININE: 0.5 mg/dL
  GLUCOSE: 166.67 mg/dL
  LIPASE: 96 u/L
  PHOSPHORUS: 9.13 mg/dL
  POTASSIUM: 5.73 MEQ/L
  SODIUM: 148.67 MEQ/L
  TOTAL BILIRUBIN: 0.6 mg/dL
  TOTAL PROTEIN: 6.27 G/DL
  URIC ACID: 0.57 mg/dL
Time 14 day
  ABSOLUTE BASOPHIL: 52 cells/µL
  ABSOLUTE EOSINOPHIL: 38 cells/µL
  ABSOLUTE LYMPHOCYTE: 10600 cells/µL
  ABSOLUTE MONOCYTE: 320 cells/µL
  BASOPHIL: 0.36%
  EOSINOPHIL: 0.28%
  ERYTHROCYTE COUNT: 7.26 x10E6/uL
  HEMATOCRIT: 44.36%
  HEMOGLOBIN: 14.58 G/DL
  LEUKOCYTE COUNT: 14.34 x10E3/uL
  LYMPHOCYTE: 74.48%
  MEAN CORPUSCULAR HEMOGLOBIN: 20.04 pg
  MEAN CORPUSCULAR HEMOGLOBIN CONCENTRATION: 32.82 G/DL
  MEAN CORPUSCULAR VOLUME: 61.16 fL
  MONOCYTE: 2.18%
  NEUTROPHIL: 22.12%
  PLATELET COUNT: 1242.2 x10E3/uL
Tissue Plasma, time 14 day
  ALANINE AMINOTRANSFERASE: 68 u/L
  ALBUMIN: 4.02 G/DL
  ALKALINE PHOSPHATASE: 529.2 u/L
  ASPARTATE AMINOTRANSFERASE: 89.8 u/L
  BLOOD UREA NITROGEN: 15.8 mg/dL
  CARBON DIOXIDE: 43.6 mmol/L
  CHLORIDE: 102.2 MEQ/L
  CHOLESTEROL: 110.2 mg/dL
  CREATINE PHOSPHOKINASE: 309 u/L
  CREATININE: 0.78 mg/dL
  GLUCOSE: 134.2 mg/dL
  LACTATE DEHYDROGENASE: 217.6 u/L
  LIPASE: 10 u/L
  PHOSPHORUS: 9.34 mg/dL
  POTASSIUM: 5.94 MEQ/L
  SODIUM: 147.8 MEQ/L
  TOTAL BILIRUBIN: 0.44 mg/dL
  TOTAL PROTEIN: 6.7 G/DL
  URIC ACID: 0.52 mg/dL
